Assays:
[1] = molecular target: T1, CK1α (Homo sapiens, UniProt P48729+Q96SW2); assay: HiBiT degradation assay, CK1α, Procedure A; assay type: cell-based; details: six hours incubation
T1 construct: CSNK1A1-HiBit KI HEK293(LgBit) Cells; host or cells: HEK293(LgBit) knock-in cells
How it was run: (§1)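 Cells in DMEM + 10% FBS were treated with compound in a ten-point dose response from 10 μM to 0.005 μM (0.1% DMSO) for six hours at 37° C. Lysis with Nano-Glo HiBiT detection reagent followed, with luminescence read. DC50 and Ymin came from a 4-parameter fit.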

[2] = molecular target: GSPT1 (Homo sapiens, UniProt P15170+Q96SW2); assay: HiBiT degradation assay, GSPT1, Procedure A; assay type: cell-based; parameters: HiBit-GSPT1 KI HEK293(LgBit) Cells; host or cells: HEK293(LgBit) knock-in cells; details: six hours incubation
Sequence of GSPT1 (P15170 whole entry): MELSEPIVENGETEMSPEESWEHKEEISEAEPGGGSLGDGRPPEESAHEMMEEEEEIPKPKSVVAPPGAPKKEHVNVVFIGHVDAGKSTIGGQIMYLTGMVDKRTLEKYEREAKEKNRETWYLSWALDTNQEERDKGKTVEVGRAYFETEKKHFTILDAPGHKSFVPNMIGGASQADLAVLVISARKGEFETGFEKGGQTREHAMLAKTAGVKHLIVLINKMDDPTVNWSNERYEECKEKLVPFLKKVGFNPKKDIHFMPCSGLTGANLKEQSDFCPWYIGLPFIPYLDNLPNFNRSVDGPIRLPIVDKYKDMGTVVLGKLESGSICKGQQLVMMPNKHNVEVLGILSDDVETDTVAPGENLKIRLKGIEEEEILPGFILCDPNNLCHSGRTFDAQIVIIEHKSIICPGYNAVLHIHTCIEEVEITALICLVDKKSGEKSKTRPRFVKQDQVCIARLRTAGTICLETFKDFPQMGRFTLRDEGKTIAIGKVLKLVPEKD
Sequence of GSPT1 (Q96SW2 whole entry): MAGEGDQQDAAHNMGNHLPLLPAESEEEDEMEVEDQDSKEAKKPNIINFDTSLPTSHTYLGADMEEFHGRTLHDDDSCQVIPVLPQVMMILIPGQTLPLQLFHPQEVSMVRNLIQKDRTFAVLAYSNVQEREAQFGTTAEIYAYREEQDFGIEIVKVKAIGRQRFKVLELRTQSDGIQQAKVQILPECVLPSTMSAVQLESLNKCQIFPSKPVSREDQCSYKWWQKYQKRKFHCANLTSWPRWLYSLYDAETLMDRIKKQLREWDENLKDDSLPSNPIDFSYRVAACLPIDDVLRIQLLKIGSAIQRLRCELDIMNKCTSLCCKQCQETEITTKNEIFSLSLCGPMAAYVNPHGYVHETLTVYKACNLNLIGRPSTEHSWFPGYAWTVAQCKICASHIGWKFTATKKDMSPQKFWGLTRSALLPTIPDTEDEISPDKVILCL
Sequence of GSPT1 (Q16531 whole entry partner): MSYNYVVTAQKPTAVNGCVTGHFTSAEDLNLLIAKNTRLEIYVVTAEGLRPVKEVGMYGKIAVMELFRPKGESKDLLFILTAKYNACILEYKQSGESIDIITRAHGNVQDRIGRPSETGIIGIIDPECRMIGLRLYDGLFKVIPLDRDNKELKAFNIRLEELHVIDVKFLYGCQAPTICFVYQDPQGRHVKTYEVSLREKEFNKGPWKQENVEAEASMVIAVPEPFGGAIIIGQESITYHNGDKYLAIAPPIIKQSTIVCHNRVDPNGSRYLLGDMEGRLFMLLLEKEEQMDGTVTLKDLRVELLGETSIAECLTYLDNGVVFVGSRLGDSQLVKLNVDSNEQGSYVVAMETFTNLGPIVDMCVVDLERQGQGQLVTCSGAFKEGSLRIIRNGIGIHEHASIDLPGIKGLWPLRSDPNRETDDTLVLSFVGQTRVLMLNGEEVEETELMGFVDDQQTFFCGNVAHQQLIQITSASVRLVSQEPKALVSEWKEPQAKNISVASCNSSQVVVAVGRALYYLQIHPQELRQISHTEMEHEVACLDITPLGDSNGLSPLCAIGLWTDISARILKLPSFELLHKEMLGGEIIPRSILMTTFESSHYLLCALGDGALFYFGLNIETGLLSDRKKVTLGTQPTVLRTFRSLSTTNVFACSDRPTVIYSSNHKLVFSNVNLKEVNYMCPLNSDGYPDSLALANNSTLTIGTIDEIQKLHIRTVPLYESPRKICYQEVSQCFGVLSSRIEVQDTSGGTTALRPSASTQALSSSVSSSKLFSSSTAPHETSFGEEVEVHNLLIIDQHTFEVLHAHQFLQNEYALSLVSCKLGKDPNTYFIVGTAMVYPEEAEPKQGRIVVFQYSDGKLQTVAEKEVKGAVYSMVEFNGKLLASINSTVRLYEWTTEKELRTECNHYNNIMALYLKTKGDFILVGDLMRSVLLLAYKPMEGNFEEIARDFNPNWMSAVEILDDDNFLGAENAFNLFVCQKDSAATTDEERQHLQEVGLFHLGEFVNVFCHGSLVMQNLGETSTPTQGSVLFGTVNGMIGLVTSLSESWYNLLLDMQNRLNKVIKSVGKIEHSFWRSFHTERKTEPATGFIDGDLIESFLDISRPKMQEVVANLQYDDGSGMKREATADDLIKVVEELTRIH
How it was run: as §1

T1 sequence (P48729 whole entry): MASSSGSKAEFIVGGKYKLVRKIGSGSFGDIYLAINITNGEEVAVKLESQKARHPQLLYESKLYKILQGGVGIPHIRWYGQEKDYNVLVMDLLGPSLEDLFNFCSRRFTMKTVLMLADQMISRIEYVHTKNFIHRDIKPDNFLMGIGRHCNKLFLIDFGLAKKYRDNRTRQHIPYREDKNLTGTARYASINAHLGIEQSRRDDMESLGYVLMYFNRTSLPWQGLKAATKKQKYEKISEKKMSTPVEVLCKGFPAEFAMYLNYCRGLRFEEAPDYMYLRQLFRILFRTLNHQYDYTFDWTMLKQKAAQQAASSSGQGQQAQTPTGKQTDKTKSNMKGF
T1 sequence (Q96SW2 whole entry): as the sequence (Q96SW2 whole entry) above
T1 sequence (Q16531 whole entry partner): as the sequence (Q16531 whole entry partner) above

| Compound | CK1α Ymin [1] | DC50 [1] [µM] | DC50 [2] [µM] | GSPT1 Ymin [2] |
| --- | --- | --- | --- | --- |
| Cn1cnc(-c2ccc3c(c2)CN(C2CCC(=O)NC2=O)C3=O)c1-c1cccc(C(N)=O)c1 (stereo not shown) [Example 248] | D (D = >10- 25% remaining) | ≥ 0.025 | ≥ 0.025 | E (E = >25-75% remaining) |
| COc1ccc(C)cc1-c1c(-c2ccc3c(c2)CN(C2CCC(=O)NC2=O)C3=O)ncn1C (stereo not shown) [Example 249] | D (D = >10- 25% remaining) | < 0.025 | ≥ 0.025 | F (F = >75-100% remaining) |
| COCc1ccc(-c2c(-c3ccc4c(c3)CN(C3CCC(=O)NC3=O)C4=O)ncn2C)cc1 (stereo not shown) [Example 250] | C (C = 0-10% remaining) | < 0.025 | < 0.025 | E (E = >25-75% remaining) |
| COc1cc(-c2c(-c3ccc4c(c3)CN(C3CCC(=O)NC3=O)C4=O)ncn2C)ccc1C (stereo not shown) [Example 251] | D (D = >10- 25% remaining) | < 0.025 | ≥ 0.025 | F (F = >75-100% remaining) |
| Cc1ccc(-c2c(-c3ccc4c(c3)CN(C3CCC(=O)NC3=O)C4=O)ncn2C)cc1CO (stereo not shown) [Example 252] | D (D = >10- 25% remaining) | < 0.025 | ≥ 0.025 | E (E = >25-75% remaining) |
| COc1ccc(-c2c(-c3ccc4c(c3)CN(C3CCC(=O)NC3=O)C4=O)ncn2C)cc1O (stereo not shown) [Example 253] | C (C = 0-10% remaining) | < 0.025 | < 0.025 | D (D = >10- 25% remaining) |
| Cc1cc(Cl)ccc1-c1c(-c2ccc3c(c2)CN(C2CCC(=O)NC2=O)C3=O)ncn1C (stereo not shown) [Example 254] | E (E = >25-75% remaining) | < 0.025 | < 0.025 | E (E = >25-75% remaining) |
| Cn1cnc(-c2ccc3c(c2)CN(C2CCC(=O)NC2=O)C3=O)c1-c1cccc2ccccc12 (stereo not shown) [Example 255] | E (E = >25-75% remaining) | < 0.025 | < 0.025 | F (F = >75-100% remaining) |
| Cn1cnc(-c2ccc3c(c2)CN(C2CCC(=O)NC2=O)C3=O)c1-c1ccc2ccccc2c1 (stereo not shown) [Example 256] | C (C = 0-10% remaining) | < 0.025 | < 0.025 | E (E = >25-75% remaining) |
| Cn1cnc(-c2ccc3c(c2)CN(C2CCC(=O)NC2=O)C3=O)c1-c1ccc(F)c(Cl)c1 (stereo not shown) [Example 257] | D (D = >10- 25% remaining) | < 0.025 | ≥ 0.025 | F (F = >75-100% remaining) |
| Cn1cnc(-c2ccc3c(c2)CN(C2CCC(=O)NC2=O)C3=O)c1-c1ccc(Cl)cc1F (stereo not shown) [Example 258] | D (D = >10- 25% remaining) | < 0.025 | ≥ 0.025 | E (E = >25-75% remaining) |
| Cn1cnc(-c2ccc3c(c2)CN(C2CCC(=O)NC2=O)C3=O)c1-c1ccc(F)cc1Cl (stereo not shown) [Example 259] | D (D = >10- 25% remaining) | < 0.025 | < 0.025 | E (E = >25-75% remaining) |
| Cn1cnc(-c2ccc3c(c2)CN(C2CCC(=O)NC2=O)C3=O)c1-c1ccc(Cl)c(F)c1 (stereo not shown) [Example 260] | D (D = >10- 25% remaining) | < 0.025 | < 0.025 | F (F = >75-100% remaining) |
| Cn1cnc(-c2ccc3c(c2)CN(C2CCC(=O)NC2=O)C3=O)c1-c1cc(Cl)ccc1F (stereo not shown) [Example 261] | E (E = >25-75% remaining) | < 0.025 | ≥ 0.025 | F (F = >75-100% remaining) |
| Cn1cnc(-c2ccc3c(c2)CN(C2CCC(=O)NC2=O)C3=O)c1-c1cccc(F)c1Cl (stereo not shown) [Example 262] | D (D = >10- 25% remaining) | < 0.025 | ≥ 0.025 | F (F = >75-100% remaining) |
| COc1cc(C#N)ccc1-c1c(-c2ccc3c(c2)CN(C2CCC(=O)NC2=O)C3=O)ncn1C (stereo not shown) [Example 263] | E (E = >25-75% remaining) | ≥ 0.025 | < 0.025 | F (F = >75-100% remaining) |
| CN1Cc2cccc(-c3c(-c4ccc5c(c4)CN(C4CCC(=O)NC4=O)C5=O)ncn3C)c2C1 (stereo not shown) [Example 264] | E (E = >25-75% remaining) | ≥ 0.025 | < 0.025 | E (E = >25-75% remaining) |
| CC(C)Cc1ccc(-c2c(-c3ccc4c(c3)CN(C3CCC(=O)NC3=O)C4=O)ncn2C)cc1 (stereo not shown) [Example 265] | D (D = >10- 25% remaining) | < 0.025 | ≥ 0.025 | F (F = >75-100% remaining) |
| Cn1cnc(-c2ccc3c(c2)CN(C2CCC(=O)NC2=O)C3=O)c1-c1cccc(C(C)(C)C)c1 (stereo not shown) [Example 266] | E (E = >25-75% remaining) | ≥ 0.025 | < 0.025 | F (F = >75-100% remaining) |
| CNC(=O)c1ccc(-c2c(-c3ccc4c(c3)CN(C3CCC(=O)NC3=O)C4=O)ncn2C)cc1 (stereo not shown) [Example 267] | C (C = 0-10% remaining) | ≥ 0.025 | ≥ 0.025 | F (F = >75-100% remaining) |
| CNC(=O)c1cccc(-c2c(-c3ccc4c(c3)CN(C3CCC(=O)NC3=O)C4=O)ncn2C)c1 (stereo not shown) [Example 268] | D (D = >10- 25% remaining) | ≥ 0.025 | ≥ 0.025 | F (F = >75-100% remaining) |
| Cn1cnc(-c2ccc3c(c2)CN(C2CCC(=O)NC2=O)C3=O)c1-c1ccc(Cl)c(C#N)c1 (stereo not shown) [Example 270] | D (D = >10- 25% remaining) | < 0.025 | ≥ 0.025 | F (F = >75-100% remaining) |

The next lines start with the values.

| CK1α Ymin [1] | DC50 [1] [µM] | DC50 [2] [µM] | GSPT1 Ymin [2] | Compound |
| --- | --- | --- | --- | --- |
| E (E = >25-75% remaining) | ≥ 0.025 | < 0.025 | F (F = >75-100% remaining) | Cn1cnc(-c2ccc3c(c2)CN(C2CCC(=O)NC2=O)C3=O)c1-c1cc(Cl)cc(C#N)c1 (stereo not shown) [Example 271] |
| E (E = >25-75% remaining) | < 0.025 | < 0.025 | F (F = >75-100% remaining) | Cn1cnc(-c2ccc3c(c2)CN(C2CCC(=O)NC2=O)C3=O)c1-c1cc(Cl)ccc1C#N (stereo not shown) [Example 272] |
| C (C = 0-10% remaining) | < 0.025 | < 0.025 | E (E = >25-75% remaining) | COc1ccc(-c2c(-c3ccc4c(c3)CN(C3CCC(=O)NC3=O)C4=O)ncn2C)c(Cl)c1 (stereo not shown) [Example 273] |
| E (E = >25-75% remaining) | < 0.025 | ≥ 0.025 | F (F = >75-100% remaining) | COc1ccc(Cl)cc1-c1c(-c2ccc3c(c2)CN(C2CCC(=O)NC2=O)C3=O)ncn1C (stereo not shown) [Example 274] |
| D (D = >10- 25% remaining) | < 0.025 | ≥ 0.025 | F (F = >75-100% remaining) | COc1ccc(Cl)c(-c2c(-c3ccc4c(c3)CN(C3CCC(=O)NC3=O)C4=O)ncn2C)c1 (stereo not shown) [Example 275] |
| C (C = 0-10% remaining) | < 0.025 | < 0.025 | F (F = >75-100% remaining) | COc1ccc(-c2c(-c3ccc4c(c3)CN(C3CCC(=O)NC3=O)C4=O)ncn2C)cc1Cl (stereo not shown) [Example 276] |
| E (E = >25-75% remaining) | < 0.025 | < 0.025 | F (F = >75-100% remaining) | COc1cccc(-c2c(-c3ccc4c(c3)CN(C3CCC(=O)NC3=O)C4=O)ncn2C)c1Cl (stereo not shown) [Example 277] |
| E (E = >25-75% remaining) | < 0.025 | ≥ 0.025 | F (F = >75-100% remaining) | COc1c(Cl)cccc1-c1c(-c2ccc3c(c2)CN(C2CCC(=O)NC2=O)C3=O)ncn1C (stereo not shown) [Example 278] |
| D (D = >10- 25% remaining) | < 0.025 | ≥ 0.025 | F (F = >75-100% remaining) | Cn1cnc(-c2ccc3c(c2)CN(C2CCC(=O)NC2=O)C3=O)c1-c1ccc(C2(C#N)CC2)cc1 (stereo not shown) [Example 279] |
| E (E = >25-75% remaining) | < 0.025 | ≥ 0.025 | F (F = >75-100% remaining) | Cn1cnc(-c2ccc3c(c2)CN(C2CCC(=O)NC2=O)C3=O)c1-c1cccc(C(F)(F)F)c1 (stereo not shown) [Example 280] |
| E (E = >25-75% remaining) | < 0.025 | ≥ 0.025 | F (F = >75-100% remaining) | Cn1cnc(-c2ccc3c(c2)CN(C2CCC(=O)NC2=O)C3=O)c1-c1ccccc1C(F)(F)F (stereo not shown) [Example 282] |
| E (E = >25-75% remaining) | < 0.025 | ≥ 0.025 | F (F = >75-100% remaining) | Cn1cnc(-c2ccc3c(c2)CN(C2CCC(=O)NC2=O)C3=O)c1-c1ccc(Cl)c(Cl)c1 (stereo not shown) [Example 283] |
| E (E = >25-75% remaining) | < 0.025 | ≥ 0.025 | F (F = >75-100% remaining) | Cn1cnc(-c2ccc3c(c2)CN(C2CCC(=O)NC2=O)C3=O)c1-c1cccc(Cl)c1Cl (stereo not shown) [Example 284] |
| E (E = >25-75% remaining) | < 0.025 | < 0.025 | F (F = >75-100% remaining) | Cn1cnc(-c2ccc3c(c2)CN(C2CCC(=O)NC2=O)C3=O)c1-c1cc(Cl)ccc1Cl (stereo not shown) [Example 285] |
| D (D = >10- 25% remaining) | < 0.025 | < 0.025 | E (E = >25-75% remaining) | Cn1cnc(-c2ccc3c(c2)CN(C2CCC(=O)NC2=O)C3=O)c1-c1ccc(Cl)cc1Cl (stereo not shown) [Example 286] |

Reference: patent US20240158370A1, “CK1 alpha AND DUAL CK1 alpha / GSPT1 DEGRADING COMPOUNDS” (Innovo Therapeutics, Inc., priority 2022, published 2024)
